Test results reported in patent US20230286973A1, “PROTEIN SECRETION INHIBITORS” (KEZAR LIFE SCIENCES, priority 2020, published 2023).

Key:
[1] = tested on: PD1-ss+10aa/Gaussia Luciferase; experiment: Dox-Induced PD1-ss-Gluc Assay; format: cell-based; conditions: 24 hr Dox induction; 293FRT/TO cells; mean; read-out: 24 hr Dox Inducible PD1ssGluc 293FRT/TO: Mean IC50
Summary of the method: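 The cell line was made by transfecting Flp-In 293 T-REx cells with a PD1 signal sequence+10aa–Gaussia luciferase fusion under T-REx control and selecting with hygromycin and blasticidin. Cells were seeded, and next day compound plus doxycycline was added at 37 °C, 5% CO2.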

[2] = tested on: TNFα-FL/Gaussia Luciferase; experiment: Dox Induced TNFα-FL-Gluc Assay; format: cell-based; conditions: for IC50: 24 hr Dox induction, 293FRT/TO cells, mean, read-out: 24 hr Dox Inducible TNFaFLGluc 293FRT/TO: Mean IC50; for 24 hr Dox Inducible TNFaFLGluc 293FRT/TO: TNF/PD1: ratio of TNFaFLGluc IC50 to PD1ssGluc IC50, '<=>' given where both are I.A.
Summary of the method: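 Flp-In 293 T-REx cells stably expressing full-length TNFα (aa 1-233) fused at its C-terminus to Gaussia luciferase under tetracycline-regulated control were plated the day before assay. Compound dilutions in DMSO/media containing doxycycline were added and incubated at 37 °C, 5% CO2. Unspecified stereochemistry denotes stereoisomer mixtures.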

[3] = tested on: HER3-ss+4aa/Gaussia Luciferase; experiment: Dox-Induced Her3-ss-Gluc Assay; format: cell-based; conditions: 24 hr Dox induction; 293FRT/TO cells; mean; read-out: 24 hr Dox Inducible Her3(ss + 4)Gluc 293FRT/TO: Mean IC50
Summary of the method: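 Stable Flp-In 293 T-REx line expressing Gaussia luciferase fused to the HER3 signal sequence plus 4 amino acids under tetracycline-regulated (T-REx) control. Cells plated the day before, then treated with compound dilutions in DMSO/media containing doxycycline and incubated at 37° C., 5% CO2.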

[4] = tested on: IL-2-FL/Gaussia Luciferase; experiment: Dox Induced IL2-FL-Gluc Assay; format: cell-based; conditions: for IC50: 24 hr Dox induction, 293FRT/TO cells, mean, read-out: 24 hr Dox Inducible IL2FLGluc 293FRT/TO: Mean IC50; for 24 hr Dox Inducible IL2FLGluc 293FRT/TO: IL2/PD1: ratio of IL2FLGluc IC50 to PD1ssGluc IC50, '<=>' given where both are I.A.
Summary of the method: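 Flp-In 293 T-REx cells stably carrying doxycycline-inducible full-length IL-2 (aa 1-153) fused at its C-terminus to Gaussia luciferase, selected with hygromycin and blasticidin. Cells were plated the day before, then treated with compounds in DMSO/media containing doxycycline at 37° C, 5% CO2.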

[5] = tested on: multiple myeloma cell line NCI-H929; experiment: H929 Cell Viability Assay; format: cell-based, human; conditions: Homo sapiens, NCI-H929, 48 h, NCI-H929 cells, Celltiter-Glo
Summary of the method: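 NCI-H929 cells, resuspended in RPMI 1640 with 10% FBS and 2 mM glutamine, were treated with compound dilutions in DMSO/media and incubated 48 hours at 37° C, 5% CO2. Viability was read by CellTiter-Glo luminescence. Compounds drawn without stereochemistry were tested as stereoisomer mixtures.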

[6] = tested on: multiple myeloma cell line U266B1; experiment: U266 Cell Viability Assay; format: cell-based, human; conditions: Homo sapiens, U-266, 48 h, U266B1 cells, Celltiter-Glo
Summary of the method: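 Cells grown in RPMI 1640 with 10% FBS, 2 mM glutamine and penicillin/streptomycin were exposed to compound dilutions in DMSO/media for 48 hours at 37° C., 5% CO2. Viability was read by CellTiter-Glo luminescence. Undefined stereocentres mean data for stereoisomer mixtures.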

[7] = Liver Microsome Stability Assay (rat); conditions: rat liver microsomes, with NADPH, 1.0 uM compound
Description: (§1) Stability of a compound was assessed in the presence of liver microsomes from various sources—mouse, rat, monkey and human liver microsomes. 1.0 uM compound, 0.4% DMSO in 0.1 M Potassium Phosphate with 1.0 mg/mL liver microsomes, were incubated at 37° C. with or without 1 mM NADPH. The samples were quenched at 0, and 30 minutes.

[8] = Liver Microsome Stability Assay (mouse); conditions: mouse liver microsomes, with NADPH, 1.0 uM compound
Description: as §1

[9] = Liver Microsome Stability Assay (human); conditions: human liver microsomes, with NADPH, 1.0 uM compound
Description: as §1

[10] = Liver Microsome Stability Assay (monkey); conditions: monkey liver microsomes, with NADPH, 1.0 uM compound
Description: as §1

Row | SMILES | IC50 [1] [nM] | IC50 [2] [nM] | 24 hr Dox Inducible TNFaFLGluc 293FRT/TO: TNF/PD1 [2] | IC50 [3] [nM] | IC50 [4] [nM] | 24 hr Dox Inducible IL2FLGluc 293FRT/TO: IL2/PD1 [4] | EC50 [5] [nM] | EC50 [6] [nM] | Liver Microsome Stability (Multiple Species): Rat - % Remaining after 30 min w/NADPH [7] [%] | Liver Microsome Stability (Multiple Species): Mouse - % Remaining after 30 min w/NADPH [8] [%] | Liver Microsome Stability (Multiple Species): Human - % Remaining after 30 min w/NADPH [9] [%] | Liver Microsome Stability (Multiple Species): Monkey - % Remaining after 30 min w/NADPH [10] [%]
1 | CC(=O)N1CCC(Oc2ccc(N3CCC[C@@H]3c3csc(NC(=O)c4cccn4CC4CCOCC4)n3)cc2)CC1 [Compound C103, (R)-N-(4-(1-(4-((1-acetylpiperidin-4-yl)oxy)phenyl)pyrrolidin-2-yl)thiazol-2-yl)-1-((tetrahydro-2H-pyran-4-yl)methyl)-1H-pyrrole-2-carboxamide] | 665 | 4990 | 7.5 | 1340 | 1160 | 1.7 | 14000 | > 25000 | 30 | 54.8 | 34.8 | 12.9
2 | CC(=O)NCc1ccc(N2CCC[C@@H]2c2csc(NC(=O)c3cccn3CC3CCOCC3)n2)cc1 [Compound C104, (R)-N-(4-(1-(4-(acetamidomethyl)phenyl)pyrrolidin-2-yl)thiazol-2-yl)-1-((tetrahydro-2H-pyran-4-yl)methyl)-1H-pyrrole-2-carboxamide] | 143 | 2410 | 16.8 | 350 | 412 | 2.9 | 6160 | > 25000 | 0.82 | 4.94 | 3.01 | 0.09
3 | NC(=O)c1ccc(N2CCC[C@@H]2c2csc(NC(=O)c3cccn3CC3CCOCC3)n2)cc1 [Compound C105, (R)-N-(4-(1-(4-carbamoylphenyl)pyrrolidin-2-yl)thiazol-2-yl)-1-((tetrahydro-2H-pyran-4-yl)methyl)-1H-pyrrole-2-carboxamide] | 36 | 900 | 25 | 107 | 157 | 4.4 | 3650 | > 25000 | 1.71 | 1.99 | 0.19 | 0.67
4 | N#CC1CC(Cn2cccc2C(=O)Nc2nc([C@H]3CCCN3c3ccccc3)cs2)C1 (stereo partly drawn) [Compound C106, (R)-1-((3-cyanocyclobutyl)methyl)-N-(4-(1-phenylpyrrolidin-2-yl)thiazol-2-yl)-1H-pyrrole-2-carboxamide] | 1090 | 19400 | 17.7 | 1430 | 2640 | 2.4 | > 25000 | > 25000 | 3.54 | 28.8 | 19 | 1.96
